Assay results as given in paper PMC3285437 (Cell, 2012).
pKd: −log10 of the molar value.

What was measured:
[1] = target: Kes1 (Kes1/Osh4) (Saccharomyces cerevisiae, UniProt P35844, K242E/K243E/R236E); experiment: [3H]-cholesterol saturation binding, sterol:detergent micelle assay
[2] = target: Kes1 (Kes1/Osh4) (Saccharomyces cerevisiae, UniProt P35844); experiment: as above

## CC(C)CCC[C@@H](C)[C@H]1CC[C@H]2[C@@H]3CC=C4C[C@@H](O)CC[C@]4(C)[C@H]3CC[C@]12C [[^3H]-Cholesterol]
[1]
  pKd: 6.10 to 6.30
[2]
  pKd: 6.10 to 6.30
